From patent US10774121B2, “Methods and compositions for treating neurodegenerative disorders and Alzheimer's Disease and improving normal memory” (The Regents of the University of California, priority 2006, dated 2020) come the findings set out here.

For one test, the system named is tyrosine kinase activity. The test is described as follows: Tyrosine kinase ELISA on extracts of β-APP-transfected DAMI cells mixed with PS-1-transfected DAMI cells. It is filed as cell-based, human. As to the method: All experiments after those in FIG. 7 (with the exception of FIG. 9a, Panel 4) were carried out with appropriately transfected DAMI cells only. Equal numbers (0.5×10^6/ml) of β-APP-transfected DAMI cells and either PS-1- or PS-2-transfected DAMI cells were mixed gently at room temperature, exactly as described (Dewji and Singer, 1998). In control experiments, DAMI cells transfected with pcDNA3 alone were substituted for the β-APP transfected cells.
At several times between 0 and 20 min after mixing, an aliquot of each cell mixture was rapidly centrifuged, the culture medium was removed, and the cell pellet was suspended in 200 μl of extraction buffer (50 mM Tris, pH 8.0/150 mM NaCl/0.5% Nonidet-P40) containing protease inhibitors (1 mM 4-(2-aminoethyl) benzene sulfonyl fluoride hydrochloride (AEBSF)/1 μg/ml antipain/0.1 μg/ml pepstatin A/0.1 μg/ml leupeptin) and the phosphatase inhibitor sodium orthovanadate (0.1 mM). The mixture was sonicated with three bursts of 20 sec duration and then centrifuged. These extract supernatants were then used for Western blot and ELISA analyses as described below.
ELISAs Protein tyrosine kinase activity was measured by an Enzyme Linked Immunosorbent Assay (ELISA) using a tyrosine kinase assay kit (Upstate Biotechnology). […]
(An ELISA detects its analyte on a solid surface through an enzyme-linked reagent.)

The next test deals with Gαo (Mus musculus, UniProt P18872). The test is described as follows: 35S-GTPγS incorporation (G-protein activation) in β-APP-only:PS-1-only co-cultures, immunoprecipitation with Gαo antibody K-20. It is filed as cell-based. As to conditions: β-APP:PS-1 co-culture, Peptide 1-80 0-3 μM. The text has this: Two cell types were generated: ES-derived mouse cells (PS-1^−/−; PS-2^−/−) that expressed only small amounts of endogenous β-APP but no PS, were transiently transfected with cDNA for human β-APP to produce cells expressing excess human β-APP over mouse β-APP, and no PS-1 or PS-2 (β-APP-only cells). Embryonic (E18) mouse primary fibroblasts derived from β-APP-null mice, expressing only small amounts of endogenous PS-1 and PS-2, were transfected with cDNAs for human PS-1 to produce cells expressing excess human over mouse PS-1 but no β-APP (PS-1-only cells). […]
Co-cultures of β-APP-only and PS-1-only cells were carried out in the presence and absence of Peptide 1-80 (0-3 μM). ^35S-GTPγS assays were carried out on extracts as a measure of G-protein activation. The Aβ produced in these co-culture extracts was determined by ELISA. […]
^35S-GTPγS Assays: Extract (100 μg of total protein) was mixed with an equal volume of GTPγS Buffer B (50 mM HEPES/NaOH pH 7.4, 40 μM GDP, 50 mM MgCl2, 100 mM NaCl) and reacted with 50 nM ^35S-GTPγS (1250 Ci/mmol, Perkin Elmer, Waltham, Mass.) for 60 min at RT. […] The agarose beads were suspended in scintillation fluid (CytoScint, ICN) (5 ml) and counted in a Beckman Coulter LS 6000 SC scintillation counter for 3 min.
(In general: GTPγS resists hydrolysis and so accumulates on activated G proteins.)

Another test has as its system Aβ production. The test is described as follows: ELISA of Aβ produced in β-APP-only:PS-1-only co-culture extracts. It counts as cell-based, mouse. As to conditions: β-APP:PS-1 co-culture, Peptide 1-80 0-3 μM. As for the experimental part:
Co-cultures of β-APP-only and PS-1-only cells were carried out in the presence and absence of Peptide 1-80 (0-3 μM). ^35S-GTPγS assays were carried out on extracts as a measure of G-protein activation. The Aβ produced in these co-culture extracts was determined by ELISA.
ES-derived mouse cells (PS-1^−/−; PS-2^−/−) that expressed only small amounts of endogenous β-APP but no PS, were transiently transfected with cDNA for human β-APP to produce cells expressing excess human β-APP over mouse β-APP, and no PS-1 or PS-2 (β-APP-only cells). Embryonic (E18) mouse primary fibroblasts derived from β-APP-null mice, expressing only small amounts of endogenous PS-1 and PS-2, were transfected with cDNAs for human PS-1 to produce cells expressing excess human over mouse PS-1 but no β-APP (PS-1-only cells). The minigenes were co-transfected with PS-1 in the PS-only APP−/− fibroblasts to inhibit the endogenous mouse Gα under investigation in those cells. PS−/− ES cells were separately transfected with human β-APP cDNA (β-APP only cells) and the two types of cells were co-cultured for 24 hours. Cells were harvested and detergent-buffer extracts of the co-cultures were prepared. Determination of [^35S]GTPγS incorporation in these cultures was carried out in the presence and absence of each minigene: Aliquots each containing 100 μg total protein were reacted with ^35S-GTPγS and immunoprecipitation of each ^35S-GTPγS-treated extract was carried out with antibodies directed to the particular Gα under investigation. Specificity of binding of a particular Gα to PS-1 was established by blocking of GTPγS incorporation in the presence of the specific minigene inhibitor.
Co-culture of β-APP-only with PS-1-only cells was carried out as described above.
ELISA for the production of Aβ1-40 was carried out using sandwich ELISA kits (Biosource).

Sequence of Gαo (P18872 whole entry): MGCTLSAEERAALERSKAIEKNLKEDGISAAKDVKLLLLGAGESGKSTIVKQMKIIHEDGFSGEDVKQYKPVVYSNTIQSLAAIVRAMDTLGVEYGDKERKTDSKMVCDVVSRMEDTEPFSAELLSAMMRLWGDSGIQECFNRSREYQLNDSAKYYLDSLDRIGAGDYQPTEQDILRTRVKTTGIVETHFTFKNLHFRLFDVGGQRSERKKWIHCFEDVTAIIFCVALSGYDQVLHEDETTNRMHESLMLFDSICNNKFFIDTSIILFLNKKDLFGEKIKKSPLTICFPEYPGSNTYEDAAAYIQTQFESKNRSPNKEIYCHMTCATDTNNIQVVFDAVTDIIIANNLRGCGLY

In the case of `CC(C)(C)n1nc(-c2ccc(Cl)cc2)c2c(N)ncnc21` [PP2], in the test with tyrosine kinase activity (10 nM PP2), the “tyrosine kinase activity after mixing” value is listed as “inhibition”.

In the case of `CO[C@H]1[C@@H](OC)C[C@H](C)[C@@H](OC)C2=CC(=O)C=C(NC(=O)/C(C)=C/C=C\[C@H](OC)[C@@H](OC(N)=O)/C(C)=C/[C@@H]1C)C2=O` [herbimycin A], the “increase in tyrosine kinase activity at 8-10 mins after mixing” value in the test with tyrosine kinase activity (10 μg/ml herbimycin A) is recorded as “completely inhibited”.

As for “Peptide 1-80: fusion construct of the water-soluble entire 80 amino acid NH2-terminal domain of PS-1”, the “G-protein (Gαo) activation, 35S-GTPγS assay” value in the test with Gαo was “inhibited by Peptide 1-80 in a dose-dependent manner”. The “Aβ production by ELISA” value in the test on Aβ production is “inhibited by Peptide 1-80 in a dose-dependent manner”.
